# Measured values: patent US9000022B2 (Exelixis Patent Company LLC, priority 2005, dated 2015)
# Test system: LXRα and/or LXRβ
# Test: Co-transfection assay (LXRE luciferase reporter, CV-1 cells)
# Assay type: cell-based, human
# Conditions: for IC50 or EC50 (potency, activation or inhibition): tested as described in Example 33, IC50 or EC50 for LXRα and/or LXRβ, isoform not specified, read-out: activity (IC50 or EC50 for LXR)
# Summary of the method: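 CV-1 cells transiently co-transfected with full-length human LXRα or LXRβ plus RXRα, an LXRE×1-Tk-luciferase reporter and a β-galactosidase control. Compounds incubated 20 h at 37 °C (≤1% DMSO; screen at 10 μM final); luciferase read after lysis. EC50/IC50 from 8-point half-log curves (4 wells per point, ≥3 experiments); efficacy relative to a reference agonist high control and DMSO.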
compound,measurement,setting,value
"CC(C)(O)c1cn(-c2ccc(-c3ccc(CO)c(S(C)(=O)=O)c3)cc2Cl)c(-c2cccc(Cl)c2Cl)n1 [Example 148, 2-(1-(3-chloro-4′-(hydroxymethyl)-3′-(methylsulfonyl)biphenyl-4-yl)-2-(2,3-dichlorophenyl)-1H-imidazol-4-yl)propan-2-ol]","IC50 or EC50 (potency, activation or inhibition)",,< 1 µM
"CC(C)(O)c1cn(-c2ccc(-c3ccc(CO)cc3)cc2)c(-c2cccc(Cl)c2Cl)n1 [Example 475, 2-(2-(2,3-dichlorophenyl)-1-(4′-(hydroxymethyl)biphenyl-4-yl)-1H-imidazol-4-yl)propan-2-ol]","IC50 or EC50 (potency, activation or inhibition)",,1 to 10 µM
"Cc1cc(-c2cccc(S(C)(=O)=O)c2)ccc1-c1nc(C(C)(C)O)cn1-c1c(C)cccc1C(C)C [Example 59, 2-(1-(2-isopropyl-6-methylphenyl)-2-(3-methyl-3′-(methylsulfonyl)biphenyl-4-yl)-1H-imidazol-4-yl)propan-2-ol]","IC50 or EC50 (potency, activation or inhibition)",,< 1 µM
"CC(C)(O)c1cn(-c2ccc(-c3cccc(S(C)(=O)=O)c3)cc2)c(CCc2ccccc2Cl)n1 [Example 27, 2-(2-(2-chlorophenethyl)-1-(3′-(methylsulfonyl)biphenyl-4-yl)-1H-imidazol-4-yl)propan-2-ol]",EC50,"read-out: activity (IC50 or EC50 for LXR), tested as described in Example 33, isoform not specified",< 1 µM
